Measurements as given in US20120128630A1, “1-(6 MEMBERS AZO-HETEROCYCLIC)-PYRROLIN-2-ONE COMPOUNDS AS INHIBITORS OF HEPATITIS C NS5B POLYMERASE, THE PHARAMACEUTICAL COMPOSITION THEREOF AND THEIR THERAPEUTIC USE” (priority 2009, published 2012).
pEC50: −log10 of the molar value.

Biological target: T1, HCV NS5B genotype 1b (Hepatitis C virus genotype 1b, UniProt Q9WMX2)
T1 construct: The protein was expressed with a 21 amino acid C-terminal deletion to remove transmembrane domain; expressed in transfected cells; host or cells: Huh-7
Assay: 3D-SCREEN assay (NS5B 3D-Screen platform, luciferase reporter gene)
Format: cell-based
Settings: EC50_3DS_NS5B, Table 1, 3D-SCREEN assay results; Huh-7 cells, 24 hours with compound, firefly luciferase reporter
From the text: cDNA encoding HCV NS5B genotype 1b, was cloned in frame with Gal4-DNA Binding Domain. The protein was expressed with a 21 amino acid C-terminal deletion to remove transmembrane domain. Expression of NS5BΔ21/Gal4 DBD fusion protein was under control of SV40 early promoter. 3D-Sensor peptide was cloned in frame with VP16 activation domain. Expression of 3D-Sensor/VP16 AD fusion protein was under control of CMV promoter. Expression of the firefly luciferase reporter gene was inducible by the [Target protein/conformation sensitive peptide/VP16AD] complex.
It is a single-target, cell based assay. Briefly, expression of a reporter gene depends on the interaction of a short peptide, thereafter named 3D-Sensor, and native conformation of the target protein. Whenever the conformation of the target protein is modified, interaction between 3D-sensor and target protein is disrupted and reporter gene is not expressed anymore. Conformation modifiers are identified by loss of expression of reporter gene. NS5B 3D-Screen platform was generated in Huh-7 cell lines by transient transfection of three expression vectors encoding respectively
(i) HCV NS5BΔ21/Gal4-DBD fusion protein
(ii) the 3D-sensor peptide I4/VP16 fusion protein
(iii) the firefly luciferase reporter gene
Huh-7 cells were dissociated the day before transfection and seeded in T175 flasks at a density of 10^7 cells in 30 ml culture medium. Equimolar ratios of vectors were transfected in cell according to optimized jetPEI transfection protocol (PolyPlus Transfection, Illkirch, France) and 10 μg total DNA/10^6 cells. Transfection was performed for 2 hours at 37° C. and 5% CO2 in a humidified atmosphere. After two hours cells were dissociated and seeded in 96 wells plates at a density of 25,000 cells per well and 90 μl culture medium. 10 μl of compounds to be tested were added 2 hours after seeding. Final concentration of DMSO was 1%. Cells were incubated in the presence of compounds for 24 hours after which expression of firefly luciferase reporter gene was quantified. Briefly, culture medium was removed and cells were lysed by addition of 100 μl of lysis buffer containing 125 mM Tris Phosphate ph 7.8, 10 mM EDTA, 5 mM DTT, 50% glycerol and 5% Triton. Plates were vortexed 10 min at 1300 rpm. Cell lysat was transferred in OpaqueWhite Assay 96 well Flat Bottom plates. 100 μl of luciferin solution 1× were added to each well. Luciferin solution contained 40 mM Tris Phosphate ph 7.8, 0.2 mM EDTA, 67 mM DTT, 2.14 mM MgCl2, 5.4 mM MgSO4, 4.7×10^−4 M luciferin, 5.3×10^−4 M ATP and 2.7×10^−4 M Acetyl co enzyme A. Luminescence was immediately measured with Berthold Microlumat Plus LB 96V luminometer with an integration of 0.5 sec. Inhibition was calculated using the formula: % inhibition=(1−(read/average max))*100. Average max=signal in absence of compound

Row | Compound | pEC50
1 | Cc1ccc(N2C(=O)C(O)=C(C(=NOCC(=O)O)c3ccc(C(C)C)cc3)C2c2ccc(OC(F)(F)F)cc2)nn1 (mixture of isomers) [Example 83, [[4-Hydroxy-1-(6-methyl-pyridazin-3-yl)-5-oxo-2-(4-trifluoromethoxy-phenyl)-2,5-dihydro-1H-pyrrol-3-yl]-(4-isopropyl-phenyl)-methyleneaminooxy]-acetic acid] | 5.10
2 | COCCON=C(C1=C(O)C(=O)N(c2ccc(C)nn2)C1c1ccc(OC(F)(F)F)cc1)c1ccc(C(C)C)cc1 (mixture of isomers) [Example 84, 3-Hydroxy-4-{(4-isopropyl-phenyl)-[2-methoxy-ethoxyimino]-methyl}-1-(6-methyl-pyridazin-3-yl)-5-(4-trifluoromethoxy-phenyl)-1,5-dihydro-pyrrol-2-one] | 5.52
3 | Cc1ccc(C(=O)C2=C(O)C(=O)N(c3ccc(C)nn3)C2c2ccc(C(F)(F)F)cc2)cc1 (centres unmarked) [Example 18, 3-hydroxy-4-(4-methyl-benzoyl)-1-(6-methyl-pyridazin-3-yl)-5-(4-trifluoromethyl-phenyl)-1,5-dihydro-pyrrol-2-one] | 6.00
4 | COc1ccc(C(=O)C2=C(O)C(=O)N(c3ccc(C)nn3)C2c2ccc(OC(F)(F)F)cc2)cc1 (centres unmarked) [Example 23, 3-hydroxy-4-(4-methoxy-benzoyl)-1-(6-methyl-pyridazin-3-yl)-5-(4-trifluoromethoxy-phenyl)-1,5-dihydro-pyrrol-2-one] | 6.00
5 | COc1ccc(C2C(C(=O)c3ccc(OC(F)(F)F)cc3)=C(O)C(=O)N2c2ccc(C)nn2)cc1 (centres unmarked) [Example 24, 3-hydroxy-5-(4-methoxy-phenyl)-1-(6-methyl-pyridazin-3-yl)-4-(4-trifluoromethoxy-benzoyl)-1,5-dihydro-pyrrol-2-one] | 5.52

Same assay, conditions: EC50_3DS_NS5B, Table 2, titled Replicon assay results

Row | Compound | pEC50
6 | Cc1ccc(N2C(=O)C(O)=C(C(=O)c3ccc(C(C)C)cc3)[C@@H]2c2ccc(C(C)(F)F)cc2)nn1 [Example 197, 5(S)-[4-(1,1-difluoro-ethyl)-phenyl]-3-hydroxy-4-(4-isopropyl-benzoyl)-1-(6-methyl-pyridazin-3-yl)-1,5-dihydro-pyrrol-2-one] | > 5.00

Tested on: not given
Assay: not given
Settings: not given

Row | Compound | melting point
7 | COC(=O)c1ccc(N2C(=O)C(O)=C(C(=O)c3ccc(C)cc3)C2c2ccc(C(C)(C)C)cc2)nc1 (centres unmarked) | 287 to 288 °C
8 | COc1ccc(C(=O)C2=C(O)C(=O)N(c3ccc(C)nn3)C2c2ccc(OC(F)(F)F)cc2)cn1 (centres unmarked) | 250 to 251 °C
9 | Cc1ccc(N2C(=O)C(O)=C(C(=O)c3ccc(C(C)C)cc3)C2c2ccc(Cn3ccnn3)cc2)nn1 (centres unmarked) | 293 °C
10 | Cc1ccc(N2C(=O)C(O)=C(C(=O)c3ccc(OC(F)(F)F)cc3)C2c2ccc(Cn3nccn3)cc2)nn1 (centres unmarked) | 277 °C
11 | Cc1ccc(N2C(=O)C(O)=C(C(=O)c3ccc(C(C)C)cc3)C2c2ccc(Oc3ccccn3)cc2)nn1 (centres unmarked) | 280 °C
12 | COc1cccc(C2C(C(=O)c3ccc(C)cc3)=C(O)C(=O)N2c2ccc(C)nn2)c1 (centres unmarked) | 265 °C
13 | COc1ccc(C2C(C(=O)c3ccc(C)cc3)=C(O)C(=O)N2c2ccc(C)nn2)cc1 (centres unmarked) | 266 °C
14 | COc1ccc(C(=O)C2=C(O)C(=O)N(c3ccc(C)nn3)C2c2ccc(OC)cc2)cc1 (centres unmarked) | 259 °C
15 | Cc1ccc(N2C(=O)C(O)=C(C(=O)c3ccc(C(C)C)cc3)C2c2ccc(N3CCN(C)CC3)cc2)nn1 (centres unmarked) | 198 to 203 °C
16 | Cc1ccc(N2C(=O)C(O)=C(C(=O)c3ccc(C(C)C)cc3)C2c2ccc(OCCN3CCOCC3)cc2)nn1 (centres unmarked) | 256 °C
17 | Cc1ccc(C(=O)C2=C(O)C(=O)N(c3ccc(C)nn3)C2c2ccc(OC3CCN(C)CC3)cc2)cc1 (centres unmarked) | 259 to 260 °C
18 | COc1ccc(C2C(C(=O)c3ccc(N4CCOCC4)cc3)=C(O)C(=O)N2c2ccc(C)nn2)cc1 (centres unmarked) | 232 °C
19 | Cc1ccc(N2C(=O)C(O)=C(C(=NOCC(=O)O)c3ccc(C(C)C)cc3)C2c2ccc(C(C)C)cc2)nn1 (centres unmarked) | 234 °C
20 | Cc1ccc(C(=O)C2=C(O)C(=O)N(c3ccc(C(F)(F)F)cn3)C2c2ccc(C(C)C)cc2)cc1 (centres unmarked) | 255 to 257 °C
21 | COc1ccc(COc2ccc(C(=O)C3=C(O)C(=O)N(c4ccc(C)nn4)C3c3ccc(OC(F)(F)F)cc3)cc2)cc1 (centres unmarked) | 206 to 209 °C
22 | COC1=C(C(=O)c2ccc(C)cc2)C(c2ccc(OC(F)(F)F)cc2)N(c2ccc(C)nn2)C1=O (centres unmarked) | 206 to 207 °C
23 | Cc1ccc(N2C(=O)C(O)=C(C(=O)c3ccc(-c4ccccn4)cc3)C2c2ccc(OC(F)(F)F)cc2)nn1 (centres unmarked) | 247 to 249 °C
24 | Cc1ccc(N2C(=O)C(O)=C(C(=NOCC(=O)O)c3ccc(C(C)C)cc3)C2c2ccc(OC(F)(F)F)cc2)nn1 (mixture of isomers) [Example 83, [[4-Hydroxy-1-(6-methyl-pyridazin-3-yl)-5-oxo-2-(4-trifluoromethoxy-phenyl)-2,5-dihydro-1H-pyrrol-3-yl]-(4-isopropyl-phenyl)-methyleneaminooxy]-acetic acid] | 227 °C
25 | COCCON=C(C1=C(O)C(=O)N(c2ccc(C)nn2)C1c1ccc(OC(F)(F)F)cc1)c1ccc(C(C)C)cc1 (mixture of isomers) [Example 84, 3-Hydroxy-4-{(4-isopropyl-phenyl)-[2-methoxy-ethoxyimino]-methyl}-1-(6-methyl-pyridazin-3-yl)-5-(4-trifluoromethoxy-phenyl)-1,5-dihydro-pyrrol-2-one] | 115 to 118 °C
26 | Cc1ccc(C(=O)C2=C(O)C(=O)N(c3ccc(C)nn3)C2c2ccc(C(F)(F)F)cc2)cc1 (centres unmarked) [Example 18, 3-hydroxy-4-(4-methyl-benzoyl)-1-(6-methyl-pyridazin-3-yl)-5-(4-trifluoromethyl-phenyl)-1,5-dihydro-pyrrol-2-one] | 278 °C
27 | COc1ccc(C(=O)C2=C(O)C(=O)N(c3ccc(C)nn3)C2c2ccc(OC(F)(F)F)cc2)cc1 (centres unmarked) [Example 23, 3-hydroxy-4-(4-methoxy-benzoyl)-1-(6-methyl-pyridazin-3-yl)-5-(4-trifluoromethoxy-phenyl)-1,5-dihydro-pyrrol-2-one] | 265 °C
28 | COc1ccc(C2C(C(=O)c3ccc(OC(F)(F)F)cc3)=C(O)C(=O)N2c2ccc(C)nn2)cc1 (centres unmarked) [Example 24, 3-hydroxy-5-(4-methoxy-phenyl)-1-(6-methyl-pyridazin-3-yl)-4-(4-trifluoromethoxy-benzoyl)-1,5-dihydro-pyrrol-2-one] | 279 °C

The next lines start with the values.

Row | melting point | Compound
29 | 198 to 199 °C | CCOc1ccc(C2C(C(=O)c3ccc(C(C)C)cc3)=C(O)C(=O)N2c2ccc(C)nn2)nc1 (centres unmarked)
30 | 259 to 266 °C | CC(=O)c1ccc(C2C(C(=O)c3ccc(C(C)C)cc3)=C(O)C(=O)N2c2ccc(C)nn2)cc1 (centres unmarked)
31 | 273 to 278 °C | Cc1ccc(N2C(=O)C(O)=C(C(=O)c3ccc(C(C)C)cc3)C2c2ccc(F)cc2)nn1 (centres unmarked)
32 | 222 to 224 °C | Cc1ccc(N2C(=O)C(O)=C(C(=O)c3ccc(C(C)C)cc3)C2c2ccc(O)cc2)nn1 (centres unmarked)
33 | > 300 °C | Cc1ccc(N2C(=O)C(O)=C(C(=O)c3ccc(C(C)C)cc3)C2c2ccc(Cn3cnnn3)cc2)nn1 (centres unmarked)
34 | 223 °C | Cc1ccc(N2C(=O)C(O)=C(C(=O)c3ccc(C(C)C)cc3)C2c2ccc(Cn3cncn3)cc2)nn1 (centres unmarked)
35 | 284 °C | Cc1ccc(N2C(=O)C(O)=C(C(=O)c3ccc(C(C)C)cc3)C2c2ccc(-n3cncn3)cc2)nn1 (centres unmarked)
36 | 263 °C | Cc1ccc(N2C(=O)C(O)=C(C(=O)c3ccc(C(C)C)cc3)C2c2ccc(Cn3cccn3)cc2)nn1 (centres unmarked)
37 | 271 °C | Cc1ccc(N2C(=O)C(O)=C(C(=O)c3ccc(C(C)C)cc3)C2c2ccc(Cn3ncnn3)cc2)nn1 (centres unmarked)
38 | 258 °C | Cc1ccc(N2C(=O)C(O)=C(C(=O)c3ccc(OC(F)(F)F)cc3)C2c2ccc(Cn3ncnn3)cc2)nn1 (centres unmarked)
39 | 275 °C | Cc1ccc(N2C(=O)C(O)=C(C(=O)c3ccc(OC(F)(F)F)cc3)C2c2ccc(Cn3ccnn3)cc2)nn1 (centres unmarked)
40 | > 300 °C | Cc1ccc(N2C(=O)C(O)=C(C(=O)c3ccc(OC(F)(F)F)cc3)C2c2ccc(Cn3cnnn3)cc2)nn1 (centres unmarked)
41 | 224 °C | Cc1ccc(N2C(=O)C(O)=C(C(=O)c3ccc(OC(F)(F)F)cc3)C2c2ccc(Cn3cncn3)cc2)nn1 (centres unmarked)
42 | 271 °C | Cc1ccc(N2C(=O)C(O)=C(C(=O)c3cccc(Cl)c3)C2c2ccc(C(C)C)cc2)nn1 (centres unmarked)
43 | 293 °C | Cc1ccc(N2C(=O)C(O)=C(C(=O)c3ccc(C(C)C)cc3)C2c2ccc(-c3nnc(C)o3)cc2)nn1 (centres unmarked)
44 | 221 °C | Cc1ccc(N2C(=O)C(O)=C(C(=O)c3ccccc3C)C2c2ccc(C(C)C)cc2)nn1 (centres unmarked)
45 | 232 °C | Cc1ccc(C(=O)C2=C(O)C(=O)N(c3ccc(C)nn3)C2c2cccc(C(F)(F)F)c2)cc1 (centres unmarked)
46 | 264 to 266 °C | COC(=O)c1ccc(N2C(=O)C(O)=C(C(=O)c3ccc(C)cc3)C2c2ccc(C(C)C)cc2)nc1 (centres unmarked)
47 | 211 to 213 °C | COc1ccccc1C1C(C(=O)c2ccc(C)cc2)=C(O)C(=O)N1c1ccc(C)nn1 (centres unmarked)
48 | 245 to 250 °C | Cc1cccc(C(=O)C2=C(O)C(=O)N(c3ccc(C)nn3)C2c2ccc(C(C)C)cc2)c1 (centres unmarked)
49 | 269 to 270 °C | Cc1ccc(C(=O)C2=C(O)C(=O)N(c3ccc(C(C)C)nn3)C2c2ccc(C(C)C)cc2)cc1 (centres unmarked)
50 | 254 °C | Cc1ccc(C(=O)C2=C(O)C(=O)N(c3ccc(C)nn3)C2c2ccc(C)cc2C)cc1 (centres unmarked)
51 | 263 to 266 °C | Cc1ccc(C(=O)C2=C(O)C(=O)N(c3ccc(C)nn3)C2c2ccc(OCCN(C)C)cc2)cc1 (centres unmarked)
52 | 185.3 °C | Cc1ccc(C(=O)C2=C(O)C(=O)N(c3ccc(C)nn3)C2c2ccc(N3CCN(CCN(C)C)CC3)cc2)cc1 (centres unmarked)
53 | 248 to 249 °C | COC1=C(C(=O)c2ccc(C)cc2)C(c2ccc(C(C)C)cc2)N(c2ccc(C)nn2)C1=O (centres unmarked)
